# How the values were obtained:
# NAD^+ = assay: Brain NAD+ measurement after TBI; assay type: in vivo, mouse
# Method: (§1) Drug preparation and administration: CGP3466B (Sigma-Aldrich, SML1941) was dissolved in DMSO and then diluted in sterile saline. The final working stock was 0.0014 mg/ml for administering the 0.014 mg/kg dose. Intraperitoneal administration of CGP3466B was initiated 15 min or 24 h after injury, and tissues were harvested 6 h (for SNO-GAPDH, SNO-SIRT1 measurement) or 2 weeks (for ac-tau measurement) later, respectively. Salsalate (AdipoGen, AG-CR1-3574) was dissolved in DMSO and then diluted in sterile PBS. The final working stocks were as follows: 2.5 mg/ml (25 mg/kg dose), 1 mg/ml (10 mg/kg dose), 0.5 mg/ml (5 mg/kg dose). Daily intraperitoneal administration of salsalate was initiated 24 hr after injury and continued throughout behavioral testing. P7C3-A20 and FK866 (Sigma-Aldrich, F8557) were first dissolved in 1 vol of DMSO, followed by addition of 4 vol of Kolliphor and vigorously vortexing. The solution was then diluted with 30 vol of filtered 5% dextrose (pH 7.0). EX527 (Selleckchem, S1541) was dissolved in 1% DMSO+30% polyethylene glycol+1% Tween 80. Daily intraperitoneal administration of P7C3-A20 was initiated 24 hr after poly-traumatic brain injury. EX527 (10 mg/kg) was administer once a day and FK866 was treated twice per day, with the first injection given at the same time as P7C3-A20 (20 mg/kg) and the second injection given 6 h later (LoCoco et al., 2017 eLife). […]
# axon initial segment = assay: Axon initial segment (AIS) degradation after TBI (AnkG, βIV-spectrin staining); assay type: in vivo, mouse
# Method: (§2) Drug preparation and administration: CGP3466B (Sigma-Aldrich, SML1941) was dissolved in DMSO and then diluted in sterile saline. The final working stock was 0.0014 mg/ml for administering the 0.014 mg/kg dose. Intraperitoneal administration of CGP3466B was initiated 15 min or 24 h after injury, and tissues were harvested 6 h (for SNO-GAPDH, SNO-SIRT1 measurement) or 2 weeks (for ac-tau measurement) later, respectively. Salsalate (AdipoGen, AG-CR1-3574) was dissolved in DMSO and then diluted in sterile PBS. The final working stocks were as follows: 2.5 mg/ml (25 mg/kg dose), 1 mg/ml (10 mg/kg dose), 0.5 mg/ml (5 mg/kg dose). Daily intraperitoneal administration of salsalate was initiated 24 hr after injury and continued throughout behavioral testing. P7C3-A20 and FK866 (Sigma-Aldrich, F8557) were first dissolved in 1 vol of DMSO, followed by addition of 4 vol of Kolliphor and vigorously vortexing. The solution was then diluted with 30 vol of filtered 5% dextrose (pH 7.0). EX527 (Selleckchem, S1541) was dissolved in 1% DMSO+30% polyethylene glycol+1% Tween 80. Daily intraperitoneal administration of P7C3-A20 was initiated 24 hr after poly-traumatic brain injury. EX527 (10 mg/kg) was administer once a day and FK866 was treated twice per day, with the first injection given at the same time as P7C3-A20 (20 mg/kg) and the second injection given 6 h later (LoCoco et al., 2017 eLife). Diflunisal was first dissolved in 1 vol of DMSO, followed by addition of 2 vol of Kolliphor and vigorously vortexing. The solution was then diluted with 7 vol of saline to the appropriate concentration for administration at 25, 50, or 100 mg/kg.
# (§3) The pressure in the side not containing the mouse was increased to cause membrane rupture at 20 pounds per square inch (PSI), which generates an about 1-2 ms jet airflow of 137.9+/−13.79 kPa that passes through the animal's head. The head remains untethered in a padded holder, while the body is fully shielded by a metal tube. The jet of air produced upon membrane rupture provides a concussive injury, which is followed by acceleration/deceleration of the head and then exposure to the ensuing blast wave within an enclosed space.
# Immunohistochemistry: Mice were transcardially perfused with cold 1× phosphate-buffered saline (PBS) followed by 4% paraformaldehyde in PBS at pH 7.4 under anesthesia. Brains were carefully removed and post-fixed in 4% paraformaldehyde overnight at 4° C. Brains were immersed in 30% sucrose in PBS for 72 h at 4° C. and then rapidly frozen in 2-methylbutane pre-cooled to −20° C. with dry ice. Brains were cut coronally (40 μm) and sections were stored in cryoprotective solution (150 mM Ethylene glycol, 100 mM glycerol, 250 mM PBS) at −20° C. For tau and NeuN staining, sections were washed three times with PBS for 5 min and then treated with 0.2% Triton X-100 in PBS for 15 min. Sections were washed with PBS and then incubated with 100 mM glycine for 15 min. After blocking sections using blocking buffer (1% bovine serum albumin, 10% normal goat serum, 0.3 M glycine) for 30 min, primary antibodies (Tau, Invitrogen, #13-6400, 1:100, NeuN, EMD Millipore Cor., #MABN-140, 1:500) were incubated overnight at 4° C. Sections were washed three times with PBS (5 min each) and then incubated with Alexa Fluor 488 goat anti-mouse (Invitrogen, A11001, 1:200) or Alexa Fluor 568 goat anti-rabbit (Life technologies, A11011, 1:200) at room temperature for 2 h. […]
# tau = assay: Tau mislocalization after TBI (tau and NeuN immunohistochemistry); assay type: in vivo, mouse
# Method: as §2, §3
# Immunohistochemistry: Mice were transcardially perfused with cold 1× phosphate-buffered saline (PBS) followed by 4% paraformaldehyde in PBS at pH 7.4 under anesthesia. Brains were carefully removed and post-fixed in 4% paraformaldehyde overnight at 4° C. Brains were immersed in 30% sucrose in PBS for 72 h at 4° C. and then rapidly frozen in 2-methylbutane pre-cooled to −20° C. with dry ice. Brains were cut coronally (40 μm) and sections were stored in cryoprotective solution (150 mM Ethylene glycol, 100 mM glycerol, 250 mM PBS) at −20° C. […]
# GAPDH = biological target: T1, GAPDH (Mus musculus, UniProt P16858); assay: S-nitrosylation of GAPDH after TBI (SNO-resin assisted capture, western blot); assay type: in vivo; settings: P7C3-A20 treatment after TBI
# T1 construct: from tissue; host or cells: cerebral cortex of C57BL/6J mice after TBI
# Method: as §1, with “eLife). Diflunisal was first dissolved in 1 vol of DMSO, followed by addition of 2 vol of Kolliphor and vigorously vortexing.” for “eLife).”
# SNO-resin assisted capture (SNO-RAC): SNO-RAC was performed as described previously (Forrester, 2009). […] After two times centrifugation (20,000 g at 4° C. for 20 min), protein concentration of supernatants was determined using Coomassie protein assay (Thermo Scientific, #1856210). […] SNO-proteins were then eluted with 2× Laemmli Sample Buffer (Bio-Rad Laboratories, Inc., #1610737) with 10% beta-mercaptoethanol (Bio-Rad Laboratories, Inc., #1610710) and analyzed by SDS-PAGE and immunoblotting.
# [1] = tested on: dementia, minor cognitive impairment, cognitive decline; settings: about 19,000 subjects, placebo-controlled; cited from earlier work
# p300/CBP = settings: literature (Shirakawa et al., 2016); cited from earlier work
# [2] = co-treatment with P7C3-A20, EX527 10 mg/kg once a day, FK866 twice per day
# [3] = P7C3-A20 daily IP from 24 h after TBI
# T1 sequence (P16858 whole entry): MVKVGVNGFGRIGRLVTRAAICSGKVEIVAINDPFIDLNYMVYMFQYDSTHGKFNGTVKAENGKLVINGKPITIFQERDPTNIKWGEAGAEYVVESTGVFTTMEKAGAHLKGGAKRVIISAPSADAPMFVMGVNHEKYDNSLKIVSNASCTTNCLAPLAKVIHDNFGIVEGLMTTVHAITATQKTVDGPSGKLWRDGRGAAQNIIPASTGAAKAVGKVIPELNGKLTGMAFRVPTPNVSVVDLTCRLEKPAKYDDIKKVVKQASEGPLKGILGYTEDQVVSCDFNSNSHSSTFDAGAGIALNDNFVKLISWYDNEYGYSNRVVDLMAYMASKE
smiles,measurement,setting,value
O=C(/C=C/c1cccnc1)NCCCCC1CCN(C(=O)c2ccccc2)CC1 [FK866],effect on P7C3-A20 rescue of NAD^+ levels,"NAD^+; FK866 twice per day, co-administered with P7C3-A20 after TBI",blocked
same,effect on P7C3-A20 protection from post-TBI AIS degradation,axon initial segment; [2],This protective effect is blocked
same,effect on P7C3-A20 protection from post-TBI tau mislocalization,tau; [2],This protective effect is blocked
"COc1cccc(NCC(F)Cn2c3ccc(Br)cc3c3cc(Br)ccc32)c1 (stereo not drawn) [P7C3-A20, 3,6-dibromo-β-fluoro-N-(3-methoxyphenyl)-9H-carbazole-9-propanamine]",SNO-GAPDH,GAPDH,SNO-GAPDH is not affected
same,brain NAD^+ levels,"NAD^+; P7C3-A20 daily IP from 24 h after TBI, cerebral cortex",rescued normal NAD^+ levels after TBI
same,post-TBI AIS degradation,axon initial segment; [3],protects mice from post-TBI AIS degradation
same,post-TBI tau mislocalization,tau; [3],protects mice from post-TBI tau mislocalization
CC(=O)Oc1ccccc1C(=O)O [aspirin],"incidence of dementia, minor cognitive impairment, or cognitive decline",[1],"does not significantly reduce the incidence of dementia, minor cognitive impairment, or cognitive decline"
same,inhibition of p300/CBP,p300/CBP,does not inhibit p300/CBP
